Results on one substance are retold here after US8557770B2, “Method of preventing or reducing scarring of human skin” (Pharmecosse Ltd., priority 2000, dated 2013).

The subject of series [1] is murine incisional wounds (myofibroblasts). The experiment in a line: Murine incisional wound healing model, α-smooth muscle actin staining score. The series is classed as in vivo, male BALB/c mice. From the text:
After general anesthesia, both posterior flanks on male BALB/c mice were shaved and cleaned with chlorhexidine in spirit. Two 1.5 cm wounds were marked (one in each flank) parallel to the spine with permanent marker. Full thickness incisions were made along these marks down to the level of the chest wall. Both lateral skin flaps were dissected from the underlying chest wall and the wound assessed from hemorrhage. The wound edges were then infiltrated with test substance or vehicle only control, as appropriate, by injection into the wound edges. Insulatard® was diluted in normal saline (0.9%) to give a final test solution of 1 IU/ml. 0.15 ml of this test solution (0.15 IU) was applied to one of the test wounds and saline alone was applied to the contralateral wound on the same animal. Wounds were closed with interrupted 5/0 Prolene® suture. Mice were recovered from the anesthetic individually and housed in groups of 4. […]
The wounds were analysed in the following manner: The comparison of the actual severity of scarring is impossible in this and all other animal models, since in contrast to human wounds, animal wounds are rapidly closed by way of swift epidermal contraction leaving minimal areas of scarring in any case. We therefore attempted to judge the efficacy of insulin in vivo on its ability to affect the number of myofibroblasts present using immunohistochemical staining methods for the myofibroblast marker, α smooth muscle actin. To allow semi-quantitative analysis of the resulting staining, a visual grading system was developed. Scars were assessed and allocated a score depending on the intensity of alpha smooth muscle actin staining within each section. […] Each scar was assessed at a number (minimum of 3) points along its length and the intensity was scored and averaged for each section to allow comparisons between treatments. Two independent assessors assessed the scoring blindly. The number of wounds assessed for each experimental group was 8. […]

Series [2] deals with fibroblast cultures from burns scars. The experiment in a line: In vitro myofibroblast differentiation assay (α-smooth muscle actin staining), burns scar fibroblasts. In kind it is cell-based, human. The settings on record: 14 days. The text has this: (§1) One of the most important cell types in both normal and pathological scar formation is the myofibroblast. These cells, which differentiate from the unwounded tissue cell type (fibroblasts), are responsible for laying down scar tissue. Indeed myofibroblasts remain present in hypertrophic scars up to four years after the original wounding event. An in vitro assay was accordingly developed to identify actives which prevent or reduce myofibroblast formation and thus identify actives which are effective in reducing and/or preventing scar tissue formation.
(§2) Fibroblast cultures were initiated from normal skin, normal scars, hypertrophic scars (HTS) and burns scars.
(§3) Each culture was split into seven parts (A to G) and grown in the following different growth media:
(§4) (A) was grown in normal growth medium (hereinafter referred to as NGM) which consisted of Dulbecco's modified Eagles Medium (DMEM) plus 10% Foetal Calf Serum (FCS);
(§5) (B) was grown in growth factor depleted medium (hereinafter referred to as GF depleted) which is NGM that is depleted of active polypeptide growth factors including TGFP. It is prepared by treating FCS with a reducing agent in order to attack and cleave the disulphide bonds that determine the conformation and thus the biological activity of the polypeptide growth factors;
(D) (D1-D4) were grown in growth factor depleted medium plus 1 ng/ml-100 ng/ml of insulin-like Growth Factor-I) (IGF-I) (hereinafter referred to as GF depleted+IGF-I); (E) (E1-E3) were grown in growth factor depleted medium plus 50 ng/ml-[…] of insulin-like Growth Factor II (IGF-II) (hereinafter referred to as GF depleted+IGFII); (F) (F1F3) were grown in growth factor depleted medium plus 25 ng/ml to 100 ng/ml of basic fibroblast growth factor (bFGF) (hereinafter referred to as GF depleted and bFGF);
(G) (G1-G3) were grown in growth factor depleted medium plus 25 ng/ml to 100 ng/ml of platelet derived growth factor (PDGF) (hereinafter referred to as GF depleted+PDGF).
The fibroblasts were grown in these media (which was replenished twice weekly) for fourteen days, fixed and stained immunohistochemically using an antibody specific for α-smooth muscle actin (a marker of myofibroblasts). The stain caused α-smooth muscle actin to fluoresce green and accordingly cells that had stained green were identified as myofibroblasts. The number of these was counted, as was the total number of cells present, and the proportion of myofibroblasts was then calculated. In this manner, the number of myofibroblasts present in each culture was determined as a percentage of the total number of cells in the culture population.

Series [3] deals with murine incisional scars. As to conditions: 1 dose of insulin (Day 0), harvested after 14 days, n=4.
Procedure: Scars were wrapped in saline soaked swabs and transported immediately to the laboratory for testing. Each scar was dissected into 2 equal strips (perpendicular to the line of the scar), each of which was measured using a Nikon Shadowmeter. The strip of tissue was mounted on the tensiometer, with the scar mounted at 6 mm from the jaws of the clamps. Traction was applied across the scar at a constant rate of 10 mm/minute, and the force required for disruption of the scar measured. Stress values were calculated by normalising load values to cross-sectional area of each specimen and are given in units of MPa.
For series [4], the system named is fibroblast cultures from hypertrophic scars (HTS). Description: In vitro myofibroblast differentiation assay (α-smooth muscle actin staining), hypertrophic scar fibroblasts. The series is classed as cell-based, human.
Excerpt: as §1, §2, §3, §4, §5
(§6) (D) (D1-D4) were grown in growth factor depleted medium plus 1 ng/ml-100 ng/ml of insulin-like Growth Factor-I) (IGF-I) (hereinafter referred to as GF depleted+IGF-I); (E) (E1-E3) were grown in growth factor depleted medium plus 50 ng/ml-[…] of insulin-like Growth Factor II (IGF-II) (hereinafter referred to as GF depleted+IGFII); (F) (F1F3) were grown in growth factor depleted medium plus 25 ng/ml to 100 ng/ml of basic fibroblast growth factor (bFGF) (hereinafter referred to as GF depleted and bFGF); […]
(§7) The fibroblasts were grown in these media (which was replenished twice weekly) for fourteen days, fixed and stained immunohistochemically using an antibody specific for α-smooth muscle actin (a marker of myofibroblasts). […] The number of these was counted, as was the total number of cells present, and the proportion of myofibroblasts was then calculated. In this manner, the number of myofibroblasts present in each culture was determined as a percentage of the total number of cells in the culture population.
(§8) Fibroblast cultures were initiated from normal scars (NS) and hypertrophic scars (HTS). […] The number of myofibroblasts was calculated as a percentage of the total cell population and the results are shown in FIGS. 1 and 2 of the drawings.
(§9) Fibroblasts cultures were initiated from normal and hypertrophic scars. […] The number of myofibroblasts were counted and calculated as a percentage of the total cells present.

Series [5] has as its system fibroblast cultures from normal scars. The experiment in a line: In vitro myofibroblast differentiation assay (α-smooth muscle actin staining), normal scar fibroblasts. The series is classed as cell-based, human.
Excerpt: as §1, §2, §3, §4, §5, §6, §7, §8, §9

The test system of series [6] is fibroblast cultures from normal skin. The experiment in a line: In vitro myofibroblast differentiation assay (α-smooth muscle actin staining), normal skin fibroblasts. As to conditions: GF depleted medium + 5 μg/ml, 14 days. The series is classed as cell-based, human.
Excerpt: as §1, §2
Each culture was split into seven parts (A to G) and grown in the following different growth media: […]
as §7

Series [7] deals with dermal fibroblast cell lines. Description: Myofibroblast number in dermal fibroblast cell lines in GFD medium with PPAR agonist. In kind it is cell-based, human. As to conditions: 1 IU/ml insulin alone, 14 days. From the text: Dermal fibroblast cell lines were derived from 3 patients and seeded individually onto sterile coverslips. […] Medium was refreshed twice weekly and cultures were harvested for immunohistochemical staining for α-smooth muscle actin after 14 days. The number of myofibroblasts was counted and calculated as a percentage of the total cells present, and since the ability of each cell line to differentiate into myofibroblasts varied extensively, the results were normalised as follows. Results are expressed as the mean percentage reduction in myofibroblast number for each treatment as compared to the proportion of myofibroblasts identified in GFD medium alone for that cell line. The error bars represent plus or minus one standard deviation.

In the case of “Insulin: polypeptide hormone; in vivo and Example 9 tests used Insulatard diluted in saline”, in series [1] (0.15 IU Insulatard injected into wound edges, day 14, 8 wounds), the “Mean score of α-smooth muscle actin staining (out of maximum of 3)” value is recorded as 0.486. Moreover, in series [1] (single dose 0.15 IU on day 0, day 14 after wounding (FIG. 4)), the Myofibroblast score result is listed as “dropping down to normal”. In series [1] (single dose 0.15 IU on day 0, maximum reached over first 7 days (FIG. 4)), this substance gave a Maximum myofibroblast score of 1.92. Further, the “Number of myofibroblasts - percentage of total cell population” value in series [2] (GF depleted medium + 10 ng/ml) was 16.44 percentage of total cell popul; in series [2] (GF depleted medium + 100 ng/ml), 15.91 percentage of total cell popul; in series [2] (GF depleted medium + 5 μg/ml), 8.20 percentage of total cell popul; in series [4] (HTS fibroblasts, GF depleted medium + 5 μg/ml, 14 days), 3.23 percentage of total cell popul; in series [5] (GF depleted medium + 5 μg/ml, 14 days) it was 6.14 percentage of total cell popul; in series [6], 5.26 percentage of total cell popul. The “Median wound breaking strength” value in series [3] amounted to 1.62 MPa. Also, the “Effect on induction of myofibroblast differentiation by active TGFβ1” value in series [4] (hypertrophic scar fibroblasts, NGM plus 5 μg/ml insulin plus 0.5 ng/ml TGFβ1, 5 days) was “no effect on the rapid induction of myofibroblast differentiation”; in series [5] (NGM plus 5 μg/ml insulin plus 0.5 ng/ml TGFβ1, 5 days), “no effect on the rapid induction of myofibroblast differentiation”. The “Mean percentage reduction in myofibroblast number compared to GFD medium alone” value in series [7] was 76.6%.
